{
  "source": "paper PMC6627374",
  "about": "“Effects of the Pentapeptide P33 on Memory and Synaptic Plasticity in APP/PS1 Transgenic Mice: A Novel Mechanism Presenting the Protein Fe65 as a Target” (International Journal of Molecular Sciences, 2019)",
  "test_system": "Iba1-positive microglia",
  "test": "Iba1 immunohistochemistry, microglia density",
  "type": "in vivo, mouse",
  "details": "APP/PS1-vehicle vs. WT-vehicle, WT-P33, APP/PS1-P33; HC and CTX; 5 mg∙kg^−1 i.p., six months",
  "procedure": "For this study, three-month-old male and female WT and APP/PS1 mice (n = 37) were used. Four groups were defined: WT-vehicle (physiological saline) (male n = 4; female n = 6), WT-P33 (male n = 6; female n = 5), APP/PS1-vehicle (male n = 3; female n = 5), and APP/PS1-P33 (male n = 6; female n = 2). Animals were subjected to intraperitoneal (i.p.) injections of P33 (5 mg∙kg^−1) for five days per week, over a course of six months. The mice were kept in groups under constant temperature (23 ± 0.5 °C), lighting (12-h/12-h light/dark cycle, lights on at 7:00 a.m.), and humidity (~50%). Standard mouse chow and tap water were supplied ad libitum. All behavioral experiments were performed in the light period. Handling was done daily at the same time.\nMice (five animals per group) were anaesthetized with chloral-hydrate (1 mg∙kg^−1) and perfused transcardially with PBS, followed by ice-cold 4% paraformaldehyde. The brains were removed, post-fixed in the same fixative, and immersed in a 30% sucrose solution containing 0.01% sodium-azide. […]\nSlides were scanned by a digital slide scanner (Mirax Midi, 3DHistech Ltd., Budapest, Hungary), equipped with a Pannoramic Viewer 1.15.4, CaseViewer 2.1 program and a QuantCenter, HistoQuant module (3DHistech Ltd., Budapest, Hungary). For quantification, all of the sections were analyzed. […] Antibody-positive cell types from the ROIs were counted and quantified. […]",
  "note": "Where a SMILES comes first, the peptide text is derived from it.",
  "data": [
    {"smiles": "C[C@@H](N)C(=O)N1CCC[C@@H]1C(=O)N[C@H](C)C(=O)N1CCC[C@@H]1C(=O)N[C@H](CCC(=O)O)C(N)=O", "note": "[P33] (HELM PEPTIDE1{[dA].[dP].[dA].[dP].[dE].[am]}$$$$V2.0)", "values": [
      {"measurement": "density of Iba1-positive microglia (in words)", "result": "higher in the APP/PS1-vehicle treated mice than in the other groups"}
    ]}
  ]
}
